Square brackets hold non-standard residues; d marks the D form. Peptide text beside a SMILES is read from it.
Tests used:
small α-syn PFF seeds [1] = experiment: Time-dependent DLS of small α-syn PFF seeds disassembly; type: biochemical; parameters: rate constant of PFF disassembly: unit not given here; conditions: 200 nM PFF + 500 nM SVD-1a
Method: Fig. 4 SVD-1a disassembles small α-syn PFF seeds into α-syn monomers. Small α-syn PFF seeds were prepared as described previously. […] A and B Time-dependent DLS measurements with 200 nM small α-syn PFF seeds in the absence (A) and presence (B) of 500 nM SVD-1a. 1 ml sample was continuously measured in a sealed quartz cuvette at 37 °C under quiescent conditions every 60 s for 72 h in a SpectroSize 300 instrument (XtalConcepts, GE). Data are shown as a radius plot where the signal amplitude of each particle size is represented by the data point diameter. C One-phase exponential decay fit of “200 nM PFF + 500 nM SVD-1a” shown in (B). Fit was performed for particles in the range of 1–100 nm with an amplitude > 0.2. Outliers were excluded from fitting using a Q value of 1%. […] Fitting was performed using the “One phase exponential decay” fitting function from GraphPad Prism 10 (GraphPad Software Inc., USA). […] D For AFM analysis, small α-syn PFF seeds pretreated with or without 400 and 1600 nM SVD-1a were incubated and dried on a freshly cleaved mica surface, followed by washing with ddH2O and drying using a gentle stream of N2. Analysis was performed using the NanoWizard 3 system (J-1100, JPK BioAFM, USA), recording multiple surface sections. The sections shown are representative of the observed species and particle density identified on all surface sections. E Exemplary Western blot of small α-syn PFF samples incubated with SVD-1a. 200 nM small α-syn PFFs (monomer equivalent) were incubated with increasing concentrations of SVD-1a for 72 h at 37 °C. PFF and monomer samples that were incubated without SVD-1a served as controls. α-Syn was detected with the antibody Syn211. A prominent α-syn monomer band was present at the expected molecular weight. Below the monomer bands, no further bands were visible. In the upper part of the blot, above the marker range, PFFs were detected, using a longer exposure time due to a weaker signal (see Supplementary Fig. 11 for the whole blot image with different exposure times). F Size-based fractionation by centrifugal concentration followed by ELISA quantification. 200 nM small α-syn PFF (monomer equivalent) were incubated with or without SVD-1a together with a 200 nM monomer control for 72 h at 37 °C. After incubation, the samples were fractioned using a 100 kDa MWCO centrifugal concentrator (Merck, Microcon DNA Fast Flow 100 MWCO). α-Syn content of flow through (red) and retentate (blue) was quantified using an α-syn specific ELISA (BioLegend, Human α-Synuclein (Colorimetric), 448607). Shown are the fractions of the retentate and flow through as a percentage of the total concentration identified for each sample. A linear regression line (blue or red dotted lines) was included for the SVD-1a-treated samples (left) to underline the concentration dependency of the SVD-1a treatment effect. The fractions identified for the α-syn monomer control sample are shown as a bar graph (right). […] Data are shown as mean values with ±SD (n = 3).
small α-syn PFF seeds were prepared as described previously with some modifications. […] The monomer equivalent concentration was determined by measuring the α-syn concentration in the supernatant after the first centrifugation and subtracting it from the start concentration for fibrilization. […]

small α-syn PFF seeds [2] = experiment: AFM analysis of small α-syn PFF seeds; type: biochemical; conditions: 400 and 1600 nM SVD-1a, 3 days at 37 °C, PBS pH 7.4
Method: Fig. 4 SVD-1a disassembles small α-syn PFF seeds into α-syn monomers. Small α-syn PFF seeds were prepared as described previously. […] A and B Time-dependent DLS measurements with 200 nM small α-syn PFF seeds in the absence (A) and presence (B) of 500 nM SVD-1a. 1 ml sample was continuously measured in a sealed quartz cuvette at 37 °C under quiescent conditions every 60 s for 72 h in a SpectroSize 300 instrument (XtalConcepts, GE). Data are shown as a radius plot where the signal amplitude of each particle size is represented by the data point diameter. C One-phase exponential decay fit of “200 nM PFF + 500 nM SVD-1a” shown in (B). […] PFF and monomer samples that were incubated without SVD-1a served as controls. α-Syn was detected with the antibody Syn211. […] In the upper part of the blot, above the marker range, PFFs were detected, using a longer exposure time due to a weaker signal (see Supplementary Fig. 11 for the whole blot image with different exposure times). F Size-based fractionation by centrifugal concentration followed by ELISA quantification. […] After incubation, the samples were fractioned using a 100 kDa MWCO centrifugal concentrator (Merck, Microcon DNA Fast Flow 100 MWCO). α-Syn content of flow through (red) and retentate (blue) was quantified using an α-syn specific ELISA (BioLegend, Human α-Synuclein (Colorimetric), 448607). […]

[3] = one-phase exponential decay, 37 °C

Structure (SMILES): CC[C@@H](C)[C@@H](NC(=O)[C@@H](Cc1c[nH]cn1)NC(=O)[C@@H](CCC(=O)O)NC(=O)[C@@H](CCC(N)=O)NC(=O)[C@@H](Cc1c[nH]c2ccccc12)NC(=O)[C@@H](Cc1ccc(O)cc1)NC(=O)[C@H](NC(=O)[C@@H](CCC(=O)O)NC(=O)[C@@H](Cc1c[nH]cn1)NC(=O)[C@H](NC(=O)[C@H]1CCCN1C(=O)[C@@H](CC(C)C)NC(=O)[C@H](N)CCCNC(=N)N)[C@H](C)O)[C@H](C)O)C(=O)N[C@H](Cc1c[nH]c2ccccc12)C(=O)N[C@H](Cc1c[nH]cn1)C(=O)N[C@H](C)C(=O)N[C@H](CCCNC(=N)N)C(=O)N[C@H](CCCNC(=N)N)C(=O)N[C@H](CCCNC(=N)N)C(=O)N[C@H](CCCNC(=N)N)C(=O)N[C@H](CCCNC(=N)N)C(N)=O [SVD-1a] (H-[dR][dL][dP][dT][dH][dE][dT][dY][dW][dQ][dE][dH][dI][dW][dH][dA][dR][dR][dR][dR][dR]-NH2)
- radius of monomeric α-syn formed (small α-syn PFF seeds [1]; 37 °C, 72 h): ~ 1.6 nm
- span of one-phase exponential decay (small α-syn PFF seeds [1]; PBS pH 7.4, 37 °C, 72 h, particles 1–100 nm, amplitude > 0.2): 23.38 nm
- radius of small α-syn PFF seeds eliminated (small α-syn PFF seeds [1]; no change (26 nm) without SVD-1a): ~ 26 nm
- half-life of PFF disassembly (small α-syn PFF seeds [1]; [3]): 5.2 h
- rate constant of PFF disassembly (small α-syn PFF seeds [1]; [3]): 0.132
- small α-syn PFF particle number (small α-syn PFF seeds [2]): decrease in small α-syn PFF particle number
